From US5705501A, “Certain substituted 1-aryl-3-morpholinopropanones to treat Alzheimer's Disease” (priority 1994, dated 1998) come the findings set out here.

The subject of assay [1] is TG3 immunoreactivity in OKA treated MSN1a cells. Kind of assay: Inhibition of TG3 immunoreactivity in OKA treated MSN1a cells (ELISA). The note with it: TG3 antibody; for IC50: Homo sapiens, 1 μM OKA, 0-64 μM drug, 2 hrs at 37° C. Type of assay: cell-based, human. The method, then: This assay can thus be used to determine whether a drug is capable of preventing or intervening in AD by attenuating the production of abnormally phosphorylated paired helical filament epitopes associated with AD. To determine whether a drug is capable of preventing or intervening in AD activity, the MSN1a cells containing tau and associated proteins are treated with OKA capable of greatly increasing immunoreactivity of the MSN1a cells with AD specific monoclonal antibodies. Then, either prior to or concomitantly with OKA treatment, a compound of the present invention is added to the culture. If the compound prevents the induction of the AD epitopes in the MSN1a cells treated with OKA, then it is said to have anti-AD activity. If the AD-specific antibodies are highly reactive with the neuroblastoma cells following OKA treatment in the presence of compound, then the compound is said to be ineffectual against AD.
The MSN1a human neuroblastoma line was subcloned from a population of MSN cells obtained from the laboratory of Dr. Peter Davies (Albert Einstein College of Medicine, New York, N.Y.). Cells were grown and maintained in flasks in RPMI 1640 medium, supplemented with 15% fetal calf serum, 100 U/ml penicillin, 100 U/ml Streptomycin, 0.5 ug/ml fungizone under 7.5% CO2 at 37° C.
Stock solutions of drugs were prepared by dissolving the anhydrous powders to final concentrations of either 10 or 20 mM in 50% aqueous or 100% dimethyl sulfoxide (DMSO), respectively. Working solutions of drugs were prepared by dilution of the stock solutions with Kreb's Ringer in Hepes buffer (KRH) (128 mM NaCl, 5 mM KCl, 2.5 mM CaCl2 1.2 mM MgSO4, 1 mM Na2 HPO4, 10 mM dextrose, 20 mM Hepes, pH 7.4). OKA is maintained as a 1 mM stock solution in DMSO prior to dilution to 4 μM in KRH.
MSN cells grown in 225 cm^2 flasks are removed from the incubator, their medium decanted and replaced with 50 ml pre-warmed KRH. The cells are harvested by scraping prior to sedimentation at 1000 rpm for 5 min. The supernatants are discarded and the cell pellets are resuspended, the cells counted and diluted to a density of 2×10^4 cells/[…]. The cells are then plated in a 96 well plate at 50 μl/well and 25 μl of 4 μM OKA and 25 μl of drug are then added to the appropriate wells; the entire 96 well plate is then incubated for 2 hrs at 37° C. Depending on the dilution of drug added, this yields individual wells containing 1 μM OKA, 0-64 μM drug and 2×10^4 cells in 0.26% DMSO in KRH. The incubation is terminated by the addition of 20 μl of 6X extraction buffer and immediate freezing at -80° C. for at least one hr. The 6X extraction buffer contains: 25 mM Tris-HCl, pH 7.6, 150 mM NaCl, 5 mM EDTA, 24 mM δ-glycerol phosphate, 10 μg/ml APMSF (4-amidinophenylmethane-sulfonyl flouride), and 2.5 μg/ml each of leupeptin, aprotinin, and pepstatin. The plates are thawed in a 37° C. water bath and 20 μl of cell lysate is added to a replica well in an ELISA plate that already contains 80 μl of coating buffer (15 mM Na2 CO3 and 35 mM NaHCO3, pH 9.6). The plates are allowed to coat overnight at 4° C. The plates are washed four times with deionized water and then blocked for 30 min at 37° C. with 200 μl/well pre-warmed 1% bovine serum albumin in 10 mM Tris-HCl, pH 7.4, 150 mM NaCl, 3 mM NaN3 (BSA-TBS). After the blocking solution is removed, 100 μl/well of an appropriate dilution of pre-warmed primary antibody (eg., TG3 or PHF-1) in BSA-TBS is added and incubated at 37° C. for 30 min. Incubation is terminated by washing four times in deionized water at which time 100 μl of an appropriate dilution of pre-warmed secondary antibody (conjugated to alkaline phosphatase) in BSA-TBS is added to each well in the ELISA plate. Incubation is performed for 30 min at 37° C. followed by washing 4 times with deionized water. […] of prewarmed chromogenic substrate (1 mg/ml p-nitrophenyl phosphate in 10% diethanolamine, 3 mM NAN3, 0.5 mM MgCl2, pH 9.8) is added and the plate incubated for 30 min at 37° C. […]

Assay [2] deals with PHF epitope (ADAP) levels in human brain tissue. Nature of the assay: ALZ-EIA of PHF epitope (ADAP) levels in post-mortem brain tissue of chronically treated patients (first retrospective study). Type of assay: in vivo. The note with it: chronically chlorpromazine treated patients (Rx), Brodman areas 10 and 38, ALZ-EIA. The method, then:
FIG. 4A is a chart showing relative ADAP concentrations in Brodman Area 10 in Alzheimer's Disease patients, normal controls and patients treated with chloropromazine (Rx).
FIG. 4B is a chart showing relative ADAP concentrations in Brodman Area 38 in Alzheimer's Disease patients, normal controls and patients treated with chloropromazine (Rx).
Frontal and cortical brain tissue specimens obtained at autopsy from patients chronically treated with chlorpromazine were analyzed using the ALZ-EIA method previously described (Ghanbari, H A, et al, JAMA, 263, 2907, 1990). The results are shown in FIGS. 4A and 4B frontal (Broadman area 10) and temporal (Broadman area 38) regions, respectively. The brain tissue (post-mortem) from approximately the same number of (age matched) normal controls and Alzheimer's Disease patients were also analyzed and are presented in these figures as negative and positive controls (for normal and AD, respectively).

Assay [3] concerns paired helical filament epitopes (TG3) in human brain tissue. Nature of the assay: Direct ELISA with TG3 antibody on post-mortem brain tissue of patients (second retrospective study). It counts as in vivo. As to conditions: chlorpromazine treated patients (Rx), N 51, summed absorbance. The text has this: In a subsequent study, 51 additional patients were identified and the analysis was repeated as above using the TG3 antibody in an ELISA format. The results, summarized in Table 1, clearly reproduce and confirm the first retrospective study. Immunohistopathological studies carried out on several brain regions from these patients were consistent with these ELISA results. Taken together, these two studies provide evidence of the therapeutic benefit of chlorpromazine in AD and validate the use of the MSN1a model for the identification of therapeutically useful compounds for the treatment of AD.
*Signal is calculated by summing the means of duplicate absorbance
readings (direct ELISA using TG3 antibody) for 8 dilutions of all lysates
prepared by one to two serial dilutions.

For assay [4], the system named is paired helical filament epitopes (PHF-1) in MSN1a cells. Nature of the assay: Western blot of PHF-1 immunoreactivity in MSN1a cells treated with okadaic acid. Type of assay: cell-based, human. The method, then:
FIG. 3 is a western blot showing PHF-1 immunoreactivity in lysates from control and chlorpromazine treated MSN cells treated with okadaic acid.
These compounds are effective at micromolar concentrations, with increased potency being evident when cells are treated prior to the addition of okadaic acid. The effective concentrations appear to be in the range at which these drugs are present in the brain following chronic treatment of psychiatric patients (Svendsen, CN, Psychopharmacology, 90, 316-321, 1986).
To determine the effect of chlorpromazine on the paired helical filament epitopes associated with AD, MSN1a cells expressing paired helical filament epitopes were incubated with […] chlorpromazine (CPZ) or a 0.2% DMSO vehicle control for 2 hours at 37° C. The cells were isolated by centrifugation, boiled for 10 minutes and […] protein from the resulting heat stable supernatants were loaded per lane on an SDS-PAGE gel. The gel was electrophoretically transferred to nitrocellulose membrane and then immunostained with PHF-1. […] The use of the MSN1a cell culture model for screening of novel compounds for therapeutic activity in AD is, therefore, quite warranted.

In assay [5] the test system is PHF-1 and TG3 epitopes in MSN1a cells. Kind of assay: Generation of Alzheimer brain specific epitopes in MSN1a cells. It counts as cell-based, human. The note with it: epitopes absent or very low in untreated cells. The method, then:
Conditions were established which led to hyperphosphorylation of the proteins known to be involved in PHF formation. Using monoclonal antibodies PHF-1 and TG3 generated to human PHF preparations, the effects of a variety of manipulations of the phosphorylation state of these proteins were tested. These tests required that most of the abnormal epitopes recognized by these monoclonal antibodies in the human Alzheimer brain should be generated in the MSN1a cells. […] These epitopes are either absent or present at a very low level in untreated MSN1a cells.
Shown in FIG. 2A are bar graphs (percent of AD) of the ELISA immunoreactivity of brain preparations (AD or normal) to either PHF-1 or TG3. Shown in FIG. 2B are bar graphs (percent of MSN+) of the ELISA immunoreactivity of MSN1 a cell preparations (minus or plus okadaic acid) to either PHF-1 or TG3. The MSN1a cell preparations plus vs minus okadaic acid closely parallel the AD vs normal brain preparations. […] The cell culture system according to the invention in which epitopes characteristic of PHF can be readily generated and subsequently recognized by the specific Alzheimer brain specific antibodies provides an assay suitable for screening compounds for their ability to block the production of these phosphorylated epitopes.

Counter-ions that a name gives are not always drawn.

As to `O=C(CCN1CCOCC1)c1ccc(Br)cc1` [Example 42, 1-(p-Bromophenyl)-3-(4'-morpholinyl)-1-propanone hydrochloride], half-maximal inhibition in assay [1] (IC50) was put at 6.4 µM. As to `CN(C)CCCN1c2ccccc2Sc2ccc(Cl)cc21` [Chlorpromazine, chlorpromazine], in assay [1], the IC50 is ~70 µM and the “inhibition of production of aberrant phosphorylated epitopes in the MSN1a cell culture model (in words)” value is “effective in inhibiting the production of these aberrant phosphorylated epitopes”. The “PHF epitope levels in brain” value in assay [2] is “low PHF epitope levels similar to normal controls”. Moreover, the “SIGNAL ± SEM, Temporal” value in assay [3] (Normal 0.00 ± 0.00, AD 17.55 ± 2.82) is 0.16 ± 0.11. The “SIGNAL ± SEM, Frontal” value in assay [3] (Normal 0.12 ± 0.12, AD 16.54 ± 2.59) stood at 0.12 ± 0.11. Moreover, the “production of paired helical filament epitopes” value in assay [4] (100 mM chlorpromazine, 2 hours at 37° C., PHF-1 immunostain) is “greatly decreased the production of paired helical filament epitopes”. Also, the “inhibition of expression of PHF epitopes upon treatment of MSN1a cells with okadaic acid” value in assay [4] (AD specific antibodies, FIG. 3) was “markedly inhibit the expression of PHF epitopes”.

As for `CCCN1CCN(CCC(=O)c2cccc(C)c2)CC1` [Example 5, 1-(m-Methylphenyl)-3-(4'-propyl-1'-piperazinyl)-1-propanone dihydrochloride], the half-maximal inhibitory concentration (IC50) in assay [1] amounted to 15.8 µM. On the same count and under the same terms, for `O=C(CCN1CCOCC1)c1cc(Cl)ccc1Cl` [Example 17, 1-(2",5"-Dichlorophenyl)-3-(4'-morpholinyl)-1-propanone hydrochloride] the value was 15.8 µM; for `Cc1cccc(C(=O)CCN2CCOCC2)c1` [Example 9, 1-(m-Methylphenyl)-3-(4'-morpholinyl)-1-propanone hydrochloride], 5.4 µM; for `CN(c1cccc(C(=O)CCN2CCOCC2)c1)S(C)(=O)=O` [Example 34, 1-[m-(N-Methyl-N-methylsulfonylamino)phenyl]-3-(4'-morpholinyl)-1-propanone hydrochloride], 7.5 µM. Same read-out and setting: the result for `CC1CN(CCC(=O)c2cccc([N+](=O)[O-])c2)CC(C)N1` (centres unmarked) [Example 26, 1-(m-Nitrophenyl)-3-(2',6'-dimethyl-4'-piperazinyl)-1-propanone dihydrochloride] reads 7.3 µM; that for `O=C(CCN1CCOCC1)c1cccc([N+](=O)[O-])c1` [Example 30, 1-(m-Nitrophenyl)-3-(4'-morpholinyl)-1-propanone hydrochloride], 5.9 µM; that for `CN1CCN(CCC(=O)c2ccccc2)CC1` [Example 1, 1-Phenyl-3-(4'-methyl-1'-piperazinyl)-1-propanone dihydrochloride], 12.4 µM. `CC1CN(CCC(=O)c2ccccc2)C(C)CN1CCC(=O)c1ccccc1` (centres unmarked) [Example 45, 1,4-Bis-(3'-Phenylpropane-3'-one-1'-yl)-2,5-dimethylpiperazine dihydrochloride] registered a concentration for half-maximal inhibition (IC50) in assay [1] of 11.4 µM.

As to `C=C1[C@@H](O)[C@@H]2O[C@]3(CC[C@H](/C=C/[C@@H](C)[C@@H]4CC(C)=C[C@@]5(O[C@H](C[C@@](C)(O)C(=O)O)CC[C@H]5O)O4)O3)CC[C@H]2O[C@@H]1[C@@H](O)C[C@H](C)[C@H]1O[C@@]2(CCCCO2)CC[C@H]1C` [okadaic acid], the “generation of the epitopes associated with Alzheimer brain specific monoclonal antibodies” value in assay [5] is recorded as “found to generate the epitopes”.

`COc1ccccc1C(=O)CCN1CCOCC1` [Example 13, 1-(o-Methoxyphenyl)-3-(4'-morpholinyl)-1-propanone hydrochloride] returned an IC50 in assay [1] of 9.1 µM.

`CN1CCN(CCC(=O)c2ccccc2F)CC1` [Example 23, 1-(o-Fluorophenyl)-3-(4'-methyl-1'-piperazinyl)-1-propanone dihydrochloride]: 13.2 µM corresponded to half-maximal inhibition in assay [1] (IC50).

Consider `O=C(CCN1CCOCC1)c1cccc(Cl)c1` [Example 38, 1-(m-Chlorophenyl)-3-(4'-morpholinyl)-1-propanone hydrochloride], for which 5.8 µM corresponded to half-maximal inhibition in assay [1] (IC50).
